Experimental data from patent US4209529A, “Farnesyl carboxylic acid α-bisabolol ester, a mucosal stabilizing composition and method of manufacturing the same” (Kotobuki Seiyaku Company Limited, priority 1977, dated 1980).

What was measured:
gastric mucosa = experiment: Gastric errosion induced by 8 hours of pylorus ligation; type: in vivo, rat (male Donryu strain); settings: 200 mg./kg. orally
Description: (§1) Male Donryu strain rats, weighing about 200 g., were divided into five groups. […] On the fifth day the animals were fasted for 24 hours, and submitted to pylorus ligation under light ether anethesia.
(§2) The drugs were given just after pylorus ligation orally. After 8 hours of ligation, the rats were sacrificed and gastric juice was collected.

[1] = Other pharmacological experiment (mucosal stabilizing, anti-inflammative, wound-healing); settings: another experiment, no data shown
ddY strain mice = experiment: LD50 by the up and down method; type: in vivo; settings: per os; ratio of LD50
Description: (§3) The LD50 value of the present compound in ddY strain mice was determined by the up and down method, with observations carried out for 24 hours.
(§4) The test drugs used in this experiment were suspended in 1% methyl cellulose and were given orally.

[2] = LD50 by the up and down method; type: in vivo; settings: mouse, in vivo, po; per os; observations for 24 hours
Description: as §3, §4

gastric epithelial cell = experiment: N-acetyl neuromatic acid (NANA) in gastric juice of pylorus-ligated rats (gastric epithelial cell stabilizing effect); type: in vivo, rat (male Donryu strain); design: unit not given here; settings: 200 mg./kg. orally, three times a day for 5 days, and after pylorus ligation, 8 h ligation
Description: as §1, §2

stress ulcer = experiment: Stress ulcer; type: in vivo, rat (male Wistar strain); settings: 100 mg./kg. per os, 30 minutes before the stress; 18 hours stress
Description: To study the anti-ulcerative actions of the test drugs in experimental animals, the stress ulcer was selected. Male rats of the Wistar strain, weighing 200-250 g. were subjected to stress according to Takagi et. al. (Chem. Pharm. Bull 12,465. 1964). The four test drugs, the present compound (III), α-bisabolol (I), farnesyl carboxylic acid (II) and gefarnate were suspended in 1% methyl cellulose and were administered to the rats in a dose of 100 mg./kg. body weight per os, 30 minutes before the stress. The animals were placed in the stress box and immersed in water bath of 20°-25° C. to the level of the xiphoid process for 18 hours.
At the end of the stress the animals were removed from the stress box, killed by a blow on the head, and the stomach removed. The stomach was filled with 1% formalin solution, placed in 1% formalin solution for 15 minutes and was then cut open along the greater curvature and examined for lesions to obtain the ulcer index. The ulcer index was determined in six grades (0-5; 5 implying perforation of stomach).

Chemical stability = type: physicochemical
aspirin ulcer = experiment: Aspirin-induced gastric mucosal lesion (aspirin ulcer); type: in vivo; settings: aspirin 100 mg./kg. per os
Description: (§5) Each drug in Table 5, suspended with TWEEN 80 and 1% CMC solution, was given either intraduodenally immediately after pylorus ligation (aspirin ulcer) or orally (indomethacin ulcer) at the volume of 0.5 ml./100 g. Aspirin was given orally 10 min. after pylorus ligation. Indomethacin was given orally 10 min. after drug administration. All animals were sacrificed 7 hrs. after operation.

5-HT induced ulcer = experiment: 5-HT induced ulcer; type: in vivo, rat
Description: In the following experiments, the effects of test drugs on 5-HT induced ulcer were investigated. To induce the gastric lesion, rats were fasted for 24 hours before injection of 5-HT 30 mg./kg. S.C. The animals were sacrificed after 20 hours of 5-HT injections, and examined for lesion. The dose and route of administration of test drugs are the same as experiment 3. In the experiment, the area of lesions (mm.^2) were measured as the ulcer-index.

indomethacin ulcer = experiment: Indomethacin-induced gastric mucosal lesion (indomethacin ulcer); type: in vivo; settings: 300 mg./kg. orally; indomethacin 20 mg./kg. per os
Description: The preventive activity of new compound (III) against the formation of gastric mucosal lesion induced by the gastric ulcerogenic, anti-inflammatory drugs, indomethacin and aspirin was evaluated according to Okabe et. al. (Jap. J. Pharmacol. 24 169 p. 1974, Amer. J. Dig. Dis. 20 626 1975).
as §5

[3] = system: carrageenin-induced rat paw edema; experiment: Carrageenin-induced rat paw edema; type: in vivo, rat (Wistar); settings: 300 mg./kg. per os
Description: To study the effect of the present compound on carrageenin-induced rat paw edema, the method of C. A. Winter (J. Pharmacol 141,369, (1963)) was applied. Wistar rats, weighing about 140 g. were used.
The present compound (III), α-bisabolol and farnesyl carboxylic acid were administered at a dosage of 300 mg./kg. (per os.) using a 1% CMC solution as the vehicle. The % inhibition was calculated as follows: [formula]

[4] = cited from earlier work; for sedative or depressive activities: Ann. Pharm. France, 33, 229 ('75); for anti-inflammative and anti-ulcerative activities: literature

Row | Compound | LD50 at 24 h [2] | Amounts of NANA, bond (gastric epithelial cell) | Amounts of NANA, free (gastric epithelial cell) | Amounts of NANA, total (gastric epithelial cell) | score (ulcer index, grades 0-5) (stress ulcer) | Inhibition (aspirin ulcer; 100 mg./kg. intraduodenally) | Ulcer Index, means ± s.e. (aspirin ulcer; 100 mg./kg. intraduodenally) | Inhibition (aspirin ulcer; 300 mg./kg. intraduodenally) | Ulcer Index, means ± s.e. (aspirin ulcer; 300 mg./kg. intraduodenally) | Inhibition (aspirin ulcer; 1000 mg./kg. intraduodenally) | Ulcer Index, means ± s.e. (aspirin ulcer; 1000 mg./kg. intraduodenally) | Increase in % of paw edema [3] | Maximum % Inhibition [3] | increased rate of paw-edema (fraction) [3] | sedative or depressive activities [4] | anti-inflammative and anti-ulcerative activities [4] | other results
1 | CC(C)=CCCC(C)=CCCC(C)=CCC(=O)OC(C)(CCC=C(C)C)C1CC=C(C)CC1 (stereo not shown) [Compound (III), 4,8,12-1,5-dimethyl-1-(4-methyl-3-cyclohexenyl)-4-hexenyl ester of 4,8,12-trimethyl-3,7,11-tridecatrienoic acid] | 24.1 mg/kg | 71.8 | 16.2 | 88.9 | 1.5 ± 0.50 | 29.8% | 21.4 ± 4.4 mm.^2 | 44.6% | 16.9 ± 3.6 mm.^2 | 65.2% | 10.6 ± 2.2 mm.^2 | 60.4% | 39.6% | 0.604 |  |  | damage to the gastric mucosa (gastric errosion) (gastric mucosa): did not produce any damage to the gastric mucosa; mucosal stabilizing, anti-inflammative and wound-healing activities [1]: possess mucosal stabilizing anti-inflammative, and wound-healing activities; toxicity, times less than that of α-bisabolol and farnesyl carboxylic acid (ddY strain mice): 6-7 times; chemical stability (Chemical stability): chemically stable; inhibition of the occurrence of lesions (5-HT induced ulcer; 100 mg./kg.): inhibits the occurrence of lesions completely; Ulcer Index (area of lesions) (5-HT induced ulcer; 100 mg./kg. per os, 5-HT 30 mg./kg. S.C., 20 hours): 0 mm.^2; Inhibition (indomethacin ulcer): 42.6%; Ulcer Index, means ± s.e. (indomethacin ulcer): 26.4 ± 5.4 mm.^2
2 | CC(C)=CCCC(C)=CCCC(C)=CCC(=O)O [Farnesyl carboxylic acid, 4,8,12-trimethyl-3,7,11-tridecatrienoic acid] | 4.26 mg/kg | 80.6 | 18.3 | 98.6 | 2.33 ± 0.84 |  |  |  |  |  |  | 76.7% | 23.3% | 0.767 |  |  | 
3 | CC(C)=CCC/C(C)=C/CC/C(C)=C/CCC(=O)OC/C=C(\C)CCC=C(C)C [Gefarnate] |  | 72.8 | 20.8 | 93.6 | 3.83 ± 0.73 | 22.3% | 23.7 ± 3.2 mm.^2 | 49.9% | 16.2 ± 2.9 mm.^2 | 49.5% | 15.4 ± 4.4 mm.^2 |  |  |  |  |  | 
4 | C=CC(C)=CCC=C(C)CCC=C(C)C [farnesene] |  |  |  |  |  |  |  |  |  |  |  |  |  |  | sedative or depressive activities | anti-inflammative and anti-ulcerative activities | 
5 | CC(C)=CCCC(C)(O)C1CC=C(C)CC1 (stereo not drawn) [α-Bisabolol, α-bisabolol] | 3.67 mg/kg | 136.3 | 12.4 | 148.7 | 4.0 ± 0.25 |  |  |  |  |  |  | 88.1% | 11.9% | 0.881 | sedative or depressive activities | anti-inflammative and anti-ulcerative activities | 
